According to patent US12484584B2, “Methods and uses of a mixture comprising alpha-cypermethrin and dinotefuran for controlling bed bugs” (BASF AGRO B.V., priority 2020, dated 2025):
Read-outs that look alike come from different tables or passages of the source.

Tested on: C. lectularius
Assay: residual contact assay in treated glass vials, with Colby synergy analysis
Type: in vivo
Conditions: Cimex lectularius, 72 h; for mortality at 1 ppm: 1 ppm alpha-cypermethrin; for mortality at 2 ppm: 2 ppm dinotefuran; for mortality at 4 ppm: 4 ppm dinotefuran; for mortality at 6 ppm: 6 ppm dinotefuran; for mortality at 8 ppm: 8 ppm dinotefuran
Experimental: Glass vials (20 mL scintillation) were treated with 445 μL of varying concentrations of α-cypermethrin dissolved in acetone, respectively dinotefuran or mixtures of α-cypermethrin and dinotefuran in the indicated ratios. Vials were turned on their sides and placed on an automated roller table. The vials were rolled (6 rpm) uncapped to allow an even coating of the treatment. After rolling, vials were allowed to completely dry for at least an hour. Each treatment was replicated five times. Approximately six bed bugs, Cimex lectularius, were placed into each vial and were exposed to treatments at room temperature for the duration of the study.
After dose response testing, assays combining two active ingredients were conducted using the same method described above. The rates used in the combination treatments for each active ingredient, α-cypermethrin and dinotefuran, were the same concentrations used when they were tested independently.
When applied in combination, the toxicological interaction between two compounds is classified based on the resultant impact on the observed effect. The interaction is termed antagonistic when the observed effect is less than the Colby expected mortality based on the responses of the two compounds applied independently at the same doses. When the observed effect of two compounds applied in combination is equal to that of the Colby expected mortality based on the responses of the two compounds applied independently, the relationship is described as additive. Finally, a synergistic interaction means that the effect of the two compounds applied in combination is greater than the Colby expected mortality based on the responses of the two compounds applied independently at the same doses.
Ataxia+mortality data at 48 hours were used to determine whether there was a synergistic effect in the combined use of α-cypermethrin and dinotefuran.
Abbott's correction for control mortality and the Colby method for testing synergy were used to analyze combination data. The method is as follows: Abbott's corrected mortality per observation (at 3 DAE)=[(% observed mortality−% control mortality)/(100%−% control mortality)]×100. Colby's expected mortality per combination observation=% mortality (A)+% mortality (B)−(% mortality (A)×% mortality (B))/100. Synergy ratio=% observed mortality/% Colby expected mortality.
Additive interactions have synergy ratios equal to 1, antagonistic interactions have synergy ratios of less than 1, and synergistic interactions have synergy ratios of greater than 1.

[1] = corrected for control mortality, read-out: Abbott's CM (Abbott's corrected mortality)
[2] = residual contact, read-out: Mortality (%) @ 72 h

Molecule `CC1(C)C(C=C(Cl)Cl)C1C(=O)OC(C#N)c1cccc(Oc2ccccc2)c1` (racemic) [alpha-cypermethrin, racemate comprising (R)-α-cyano-3-phenoxybenzyl (1S, 3S)-3-(2,2-dichlorovinyl)-2,2-dimethylcyclopropanecarboxylate; (S)-α-cyano-3-phenoxybenzyl (1R, 3R)-3-(2,2-dichlorovinyl)-2,2-dimethylcyclopropanecarboxylate] has a mortality at 1 ppm [1] of 24.1% and a mortality at 1 ppm [2] of 26.7%.
`CNC(=N[N+](=O)[O-])NCC1CCOC1` (racemic) [dinotefuran, (RS)-1-methyl-2-nitro-3-(tetrahydro-3-furylmethyl) guanidine] gave a mortality at 2 ppm [1] of 3.4%, a mortality at 2 ppm [2] of 6.7% and a mortality at 4 ppm [1] of 3.4%. It also gave a mortality at 4 ppm [2] of 6.7%, a mortality at 6 ppm [1] of 3.4% and a mortality at 6 ppm [2] of 6.7%. For the same molecule, the mortality at 8 ppm [1] was 3.4% and the mortality at 8 ppm [2] was 6.7%.
